Assay results taken from patent publication US5663162A, “Cephem derivatives” (priority 1993, dated 1997).
In brackets after ≈: the same amount, converted by molar mass. Like-named read-outs stand apart in the source and are kept apart here.

Tests used:
Experiment in all cases: Antibacterial activity test, MIC by two-fold dilution method
S. Aureus 133 = assay type: cell-based, Staphylococcus aureus (methicillin-resistant, MRSA); settings: Staphylococcus aureus, read-out: Minimum Inhibition Concentration
Experimental: (§1) The measurement was carried out in the following manner: 10^6 CFU/ml of a bacterium to be tested was inoculated on a Medium N for disc susceptibility test (manufactured by Nissui Pharmaceutical Co., Ltd.), and cultivated at 35° C. for 18 to 20 hours.

S. Aureus 126 = assay type: cell-based, Staphylococcus aureus (methicillin-resistant, MRSA); settings: Staphylococcus aureus, read-out: Minimum Inhibition Concentration
Experimental: as §1

S. marcescens No. 1 = assay type: cell-based; settings: Serratia marcescens
Experimental: as §1

S. epidermidis ATCC14990 = assay type: cell-based; settings: Staphylococcus epidermidis
Experimental: as §1

P. aeruginosa GN10362 = assay type: cell-based; settings: Pseudomonas aeruginosa
Experimental: as §1

P. vulgaris GN76 = assay type: cell-based; settings: Proteus vulgaris
Experimental: as §1

E. coli NIHJ JC-2 = assay type: cell-based; settings: Escherichia coli, NIHJJC2; E. coli NIHJ JC-2; 10^6 CFU/ml, 35° C., 18 to 20 hours; read-out: Minimum Inhibition Concentration
Experimental: as §1

M. morganii 1510/S-1 = assay type: cell-based; settings: Morganella morganii
Experimental: as §1

E. cloacae G-0008 = assay type: cell-based; settings: Enterobacter cloacae, G0008; E. cloacae G-0008; 10^6 CFU/ml, 35° C., 18 to 20 hours; read-out: Minimum Inhibition Concentration
Experimental: as §1

P. aeruginosa E-2 = assay type: cell-based; settings: Pseudomonas aeruginosa, E2; P. aeruginosa E-2; 10^6 CFU/ml, 35° C., 18 to 20 hours; read-out: Minimum Inhibition Concentration
Experimental: as §1

C. freundii GN346/16 = assay type: cell-based; settings: Citrobacter freundii
Experimental: as §1

S. Aureus 209P JC-1 = assay type: cell-based; settings: Staphylococcus aureus, read-out: Minimum Inhibition Concentration
Experimental: as §1

K. pneumoniae PC1602 = assay type: cell-based; settings: Klebsiella pneumoniae; K. pneumoniae PC1602; 10^6 CFU/ml, 35° C., 18 to 20 hours; read-out: Minimum Inhibition Concentration
Experimental: as §1

[1] = S. marcescens No. 1, 10^6 CFU/ml, 35° C., 18 to 20 hours, read-out: Minimum Inhibition Concentration
[2] = S. epidermidis ATCC14990, 10^6 CFU/ml, 35° C., 18 to 20 hours, read-out: Minimum Inhibition Concentration
[3] = P. aeruginosa GN10362, 10^6 CFU/ml, 35° C., 18 to 20 hours, read-out: Minimum Inhibition Concentration
[4] = P. vulgaris GN76, 10^6 CFU/ml, 35° C., 18 to 20 hours, read-out: Minimum Inhibition Concentration
[5] = 1510/S1, M. morganii 1510/S-1, 10^6 CFU/ml, 35° C., 18 to 20 hours, read-out: Minimum Inhibition Concentration
[6] = C. freundii GN346/16, 10^6 CFU/ml, 35° C., 18 to 20 hours, read-out: Minimum Inhibition Concentration
[7] = S. Aureus 133 (MRSA), 10^6 CFU/ml, 35° C., 18 to 20 hours
[8] = S. Aureus 126 (MRSA), 10^6 CFU/ml, 35° C., 18 to 20 hours
[9] = ATCC14990, read-out: Minimum Inhibition Concentration

## Nc1nc(/C(=N/OCF)C(=O)N[C@@H]2C(=O)N3C(C(=O)[O-])=C(C[n+]4cc5sccn5c4[C@H](CO)NC=O)CS[C@H]23)ns1 [Example 164, (6R,7R)-7-[(Z)-2-(5-amino-1,2,4-thiadiazol-3-yl)-2-fluoromethoxyiminoacetamido]-3-[5-((R)-1-formylamino-2-hydroxyethyl]imidazo[5,1-b]thiazolium-6-yl)methyl-3-cephem-4-carboxylate]
S. Aureus 133; MRSA
  MIC: 6.25 µg/mL (≈ 9.99 µM)
S. Aureus 126; MRSA
  MIC: 6.25 µg/mL (≈ 9.99 µM)
S. marcescens No. 1; [1]
  MIC: ≤ 0.025 µg/mL
S. epidermidis ATCC14990; [2]
  MIC: 0.78 µg/mL (≈ 1.25 µM)
P. aeruginosa GN10362; [3]
  MIC: 0.78 µg/mL (≈ 1.25 µM)
P. vulgaris GN76; [4]
  MIC: 0.2 µg/mL (≈ 0.32 µM)
E. coli NIHJ JC-2
  MIC: ≤ 0.025 µg/mL
M. morganii 1510/S-1; [5]
  MIC: ≤ 0.025 µg/mL
E. cloacae G-0008
  MIC: 0.05 µg/mL (≈ 0.0799 µM)
P. aeruginosa E-2
  MIC: 0.78 µg/mL (≈ 1.25 µM)
C. freundii GN346/16; [6]
  MIC: ≤ 0.025 µg/mL
S. Aureus 209P JC-1; S. Aureus 209P JC-1, 10^6 CFU/ml, 35° C., 18 to 20 hours
  MIC: 0.78 µg/mL (≈ 1.25 µM)
K. pneumoniae PC1602
  MIC: ≤ 0.025 µg/mL

## C[C@H](O/N=C(\C(=O)N[C@@H]1C(=O)N2C(C(=O)[O-])=C(C[n+]3cc4sccn4c3)CS[C@H]12)c1csc(N)n1)C(=O)O [Example 2, (6R,7R)-7-[(Z)-2-(2-Aminothiazol-4-yl)-2-((S)-l-carboxyethoxy-imino)acetamide]-3-(imidazo[5,1-b]thiazolium-6-yl)methyl-3-cephem-4-carboxylate]
S. Aureus 133; [7]
  MIC: 100 µg/mL (≈ 173 µM)
S. Aureus 126; [8]
  MIC: > 100 µg/mL
S. marcescens No. 1; [1]
  MIC: ≤ 0.025 µg/mL
S. epidermidis ATCC14990; [9]
  MIC: 6.25 µg/mL (≈ 10.8 µM)
P. aeruginosa GN10362; [3]
  MIC: 0.78 µg/mL (≈ 1.35 µM)
P. vulgaris GN76; [4]
  MIC: ≤ 0.025 µg/mL
E. coli NIHJ JC-2
  MIC: 0.05 µg/mL (≈ 0.0866 µM)
M. morganii 1510/S-1; [5]
  MIC: ≤ 0.025 µg/mL
E. cloacae G-0008
  MIC: 0.05 µg/mL (≈ 0.0866 µM)
P. aeruginosa E-2
  MIC: 0.78 µg/mL (≈ 1.35 µM)
C. freundii GN346/16; GN346, read-out: Minimum Inhibition Concentration
  MIC: 0.39 µg/mL (≈ 0.675 µM)
S. Aureus 209P JC-1; 209P
  MIC: 6.25 µg/mL (≈ 10.8 µM)
K. pneumoniae PC1602
  MIC: ≤ 0.025 µg/mL

## Nc1nc(/C(=N/OC2CCCC2)C(=O)N[C@@H]2C(=O)N3C(C(=O)[O-])=C(C[n+]4cc5sccn5c4)CS[C@H]23)ns1 [Example 112, (6R,7R)-7-[(Z)-2-(5-Amino-1,2,4-thiadiazol-3-yl)-2-cyclopentyl-oxyiminoacetamide]-3-(imidazo[5,1-b]thiazolium-6-yl)methyl-3-cephem-4-carboxylate]
S. Aureus 133; [7]
  MIC: 3.13 µg/mL (≈ 5.45 µM)
S. Aureus 126; [8]
  MIC: 3.13 µg/mL (≈ 5.45 µM)
S. marcescens No. 1; NO.1, read-out: Minimum Inhibition Concentration
  MIC: 1.56 µg/mL (≈ 2.71 µM)
S. epidermidis ATCC14990; [2]
  MIC: 0.2 µg/mL (≈ 0.348 µM)
P. aeruginosa GN10362; [3]
  MIC: 3.13 µg/mL (≈ 5.45 µM)
P. vulgaris GN76; [4]
  MIC: 3.13 µg/mL (≈ 5.45 µM)
E. coli NIHJ JC-2
  MIC: 0.78 µg/mL (≈ 1.36 µM)
M. morganii 1510/S-1; 1510/S1, read-out: Minimum Inhibition Concentration
  MIC: 0.39 µg/mL (≈ 0.679 µM)
E. cloacae G-0008
  MIC: 0.78 µg/mL (≈ 1.36 µM)
P. aeruginosa E-2
  MIC: 3.13 µg/mL (≈ 5.45 µM)
C. freundii GN346/16; [6]
  MIC: 0.78 µg/mL (≈ 1.36 µM)
S. Aureus 209P JC-1; 209P
  MIC: 0.39 µg/mL (≈ 0.679 µM)
K. pneumoniae PC1602
  MIC: 0.78 µg/mL (≈ 1.36 µM)

## Nc1nc(/C(=N/OCCF)C(=O)N[C@@H]2C(=O)N3C(C(=O)[O-])=C(C[n+]4cc5sccn5c4)CS[C@H]23)ns1 [Example 133, (6R,7R)-7-[(Z)-2-(5-Amino-1,2,4-thiadiazol-3-yl)-2-(2-fluoroethoxyimino)acetamide]3-cephem-4-carboxylate]
S. Aureus 133; MRSA
  MIC: 6.25 µg/mL (≈ 11.3 µM)
S. Aureus 126; [8]
  MIC: 12.5 µg/mL (≈ 22.6 µM)
S. marcescens No. 1; [1]
  MIC: ≤ 0.025 µg/mL
S. epidermidis ATCC14990; [9]
  MIC: 0.39 µg/mL (≈ 0.706 µM)
P. aeruginosa GN10362; [3]
  MIC: 0.78 µg/mL (≈ 1.41 µM)
P. vulgaris GN76; [4]
  MIC: 0.2 µg/mL (≈ 0.362 µM)
E. coli NIHJ JC-2
  MIC: ≤ 0.025 µg/mL
M. morganii 1510/S-1; [5]
  MIC: ≤ 0.025 µg/mL
E. cloacae G-0008
  MIC: ≤ 0.025 µg/mL
P. aeruginosa E-2
  MIC: 0.78 µg/mL (≈ 1.41 µM)
C. freundii GN346/16; [6]
  MIC: 0.1 µg/mL (≈ 0.181 µM)
S. Aureus 209P JC-1; 209P
  MIC: 0.39 µg/mL (≈ 0.706 µM)
K. pneumoniae PC1602
  MIC: ≤ 0.025 µg/mL

## CO/N=C(\C(=O)N[C@@H]1C(=O)N2C(C(=O)[O-])=C(C[n+]3cc4sccn4c3)CS[C@H]12)c1nsc(N)n1 [Example 30, (6R,7R)-7-[(Z)-2-(5-Amino-1,2,4-thiadiazol-3-yl)-2-methoxyiminoacetamide]-3-(imidazo [5, l-b]thiazolium-6-yl)methyl-3-cephem-4-carboxylate]
S. Aureus 133; [7]
  MIC: 12.5 µg/mL (≈ 24 µM)
S. Aureus 126; [8]
  MIC: 25 µg/mL (≈ 48 µM)
S. marcescens No. 1; [1]
  MIC: 0.05 µg/mL (≈ 0.096 µM)
S. epidermidis ATCC14990; [9]
  MIC: 0.39 µg/mL (≈ 0.749 µM)
P. aeruginosa GN10362; GN10362, read-out: Minimum Inhibition Concentration
  MIC: 1.56 µg/mL (≈ 3 µM)
P. vulgaris GN76; GN76, read-out: Minimum Inhibition Concentration
  MIC: 0.39 µg/mL (≈ 0.749 µM)
E. coli NIHJ JC-2
  MIC: 0.05 µg/mL (≈ 0.096 µM)
M. morganii 1510/S-1; [5]
  MIC: 0.1 µg/mL (≈ 0.192 µM)
E. cloacae G-0008
  MIC: 0.05 µg/mL (≈ 0.096 µM)
P. aeruginosa E-2
  MIC: 3.13 µg/mL (≈ 6.01 µM)
C. freundii GN346/16; [6]
  MIC: 0.1 µg/mL (≈ 0.192 µM)
S. Aureus 209P JC-1; 209P
  MIC: 0.39 µg/mL (≈ 0.749 µM)
K. pneumoniae PC1602
  MIC: 0.05 µg/mL (≈ 0.096 µM)
